Patent US20120282237A1, “USE OF PROTEIN ARGININE METHYLTRANSFERASES IN REGULATING HEMATOPOIETIC DIFFERENTIATION” (priority 2011, published 2012)

Key:
K562 cells [1] = assay: Ara-C-induced erythroid differentiation of K562 cells, benzidine staining; format: cell-based, human
Experimental: Various K562 cell clones were treated with Ara-C (A, 1 μM) and sodium butyrate (B, 2 mM) for 96 hr, and measured by qualifying hemoglobin-positive cells with benzidine stain. […] All experiments were performed at least three times and data are presented as means±S.E.; *** p<0.005 as compared with K562 parental cells.
The methyltransferase inhibitor, adenosine dialdehyde (AdOx), was added 8 hours before Ara-C treatment. Inhibition of methylation suppressed Ara-C-induced erythroid differentiation (A). The enzymatically impaired mutant PRMT1G80R, when transiently expressed in K562 cells (B), lost the effect on both megakaryocyte (C) and erythroid (D) differentiations. […] All experiments were performed at least three times and data are presented as means±S.E.; *** p<0.005 as compared with K562 parental cells.
In order to test whether activity of PRMT1 participates in regulation of differentiation, adenosine dialdehyde (AdOx), an inhibitor of S-adenosylhomocysteine hydrolase, which indirectly suppresses methylation due to accumulation of products, was used to treat K562 cells. […] A single amino acid mutation (G80R) in the conserved SAM binding domain of PRMT1 with impaired methyltransferase activity (Kwak et al., Mol. Cell 2003, 11, 1055-1066), HA-PRMT1G80R, was transiently expressed in K562 cells (FIG. 5B).

K562 cells [2] = assay: PMA-induced megakaryocyte differentiation of K562 cells (modified Wright-Giemsa staining, adherent cells); format: cell-based, human; details: PMA 40 nM
Experimental: For megakaryocyte differentiation, K562 cells were treated with 40 nM of PMA, (Sigma-Aldrich). Adherent cells with pseudopodia were examined by phase contrast light microscopy. For quantification, cells in suspension or loosely attached were first removed from the culture dish carefully, and adherent cells were then removed by trypsinization, collected, and counted. Cytological changes, including a multilobed nucleus and vacuolated cytoplasm, were examined by modified Wright-Giemsa staining. Three to four hundred cells were examined in each assay.
Megakaryopoiesis can be characterized by cytological changes and expression of lineage-specific markers such as CD41. […] In addition, we observed an increased number of adherent cells, about 30% at 96 hour (FIG. 2B, E3-6).

[3] = system: human CD34+ hematopoietic cells; assay: TPO-induced megakaryocyte differentiation of CD34+ cells, CD41 expression by flow cytometry; format: cell-based; details: TPO alone (100 ng/ml), day 15
Experimental: To analyze the megakaryocyte surface marker CD41, cells were first incubated in 2% bovine serum albumin for 30 min and then with fluorescein isothiocyanate (FITC)-conjugated anti-Plt-1 (CD41) antibodies (1:80, Beckman Coulter) in 1% bovine serum albumin for 30 min; cells were then analyzed by flow cytometry.
To investigate the effect of PRMT1 in more physiologically relevant conditions, TAT-HA-PRMT1 was introduced into human CD34^+ hematopoietic cells. CD34^+ cells were derived from human umbilical cord blood with consent from the mother and were collected and processed according to governmental regulations (“Guidelines for Collection and Use of Human Specimens for Research.” Department of Health, Taiwan). Isolation and expansion of CD34^+ cells were performed as described previously (Yao, et al., Stem Cells Dev. 2006, 15, 70-78).
Briefly, the CD34^+ cells were purified with CD34 microbeads by a Miltenyi VarioMACS device (Miltenyi Biotec) and cultivated in serum-free Iscove's modified Dulbecco's medium (IMDM) (HyClone) supplemented with serum substitutes (1.5 g/liter bovine serum albumin, 4.4 μg/ml insulin, 60 μg/ml transferrin, and 25.9 μM 2-mercaptoethanol) and a cytokine mixture (8.5 ng/ml TPO, 4.1 ng/ml interleukin-3, 15 ng/ml stem cell factor, 6.7 ng/ml flk2/flt3 ligand, 0.8 ng/ml interleukin-6, 3.2 ng/ml granulocyte colony-stimulating factor, and 1.3 ng/ml granulocyte-macrophage colony-stimulating factor) for 6 to 7 days. To induce megakaryocyte differentiation, the expanded CD34^+ cells were cultivated (5×10^4cells/ml) in media described above without cytokine mixture for 6 h. TPO (100 ng/ml) was added to induce differentiation. Expression of CD41 was analyzed by flow cytometry 15 days after TPO stimulation.
Recombinant TAT-fused HA-PRMT1 and HA-GFP (as a control) proteins were expressed in Escherichia coli and purified using Ni^+-nitrilotriacetic acid-agarose (Qiagen). Endotoxins were removed using Detoxi-Gel™ endotoxin removing gel (Pierce) according to the manufacturer's instructions. For differentiation study, recombinant TAT-fused proteins were added to CD34^+ cells 6 h before TPO stimulation and again at the time of TPO addition.
Both the recombinant TAT-conjugated HA-PRMT1 protein and the HA-GFP control protein were detected in cells by Western blot analysis (FIG. 6A). Erk was used as a loading control. Thrombopoietin (TPO) induces CD34^+ hematopoietic cells to undergo differentiation towards the megakaryocyte lineage as detected by the expression of the specific surface marker CD41. TPO-induced CD41 expression ranged from 45% to 76% in four different donors at day 15 after TPO treatment (Table 1).

Question: For Nc1ncnc2c1ncn2C(C=O)OC(C=O)CO (centres unmarked) [AdOx, adenosine dialdehyde], which Ara-C-induced erythrocytic differentiation (K562 cells [1]; AdOx added 8 hours before Ara-C treatment) is on record?
Answer: Its Ara-C-induced erythrocytic differentiation is “dramatically suppressed”.

Question: And the erythrocytic differentiation (K562 cells [1]; AdOx alone, no Ara-C)?
Answer: The erythrocytic differentiation was “did not influence differentiation”.

Question: Which results are given for CCCCCCCCCCCCCC(=O)O[C@@H]1[C@@H](C)[C@@]2(O)[C@@H](C=C(CO)C[C@]3(O)C(=O)C(C)=C[C@@H]23)[C@@H]2C(C)(C)[C@]12OC(C)=O [PMA, Phobol 12-myristate 13-acetate]?
Answer: cells with characteristics of megakaryocytes (K562 cells [2]; E3-6 and parental K562 cells, 96 hours): About 50%; adherent cells (K562 cells [2]; E3-6 cells, 96 hour): about 30%

Question: With “TPO: Thrombopoietin, inducer of megakaryocyte differentiation of CD34+ cells (100 ng/ml)” as the compound, how does the CD41 expression ([3]; donor 1) read?
Answer: The CD41 expression was 62.3%.

Question: What about the CD41 expression ([3]; donor 2) of the same compound?
Answer: The CD41 expression was 44.7%.

Question: What about the CD41 expression ([3]; donor 3) of the same compound?
Answer: Its CD41 expression is 68.2%.

Question: And the CD41 expression ([3]; donor 4)?
Answer: Its CD41 expression is 75.7%.
